Test results from ChEMBL document CHEMBL1201862, “PubChem BioAssay data set” (2004).
Active and inactive are the calls of the source.

Tested on: P388/ADR
Experiment: cells
Assay type: functional
Settings: Mus musculus

Compound | GI50
O=C(NCCCl)O/N=C/c1cccnc1 | 52.5 µM (inactive)

Tested on: not listed separately
Experiment: P. falciparum Dd2 growth inhibitors, dose response, SYBR Green, cherry-picked samples (AID 1159567)
Assay type: functional, cell-based
Settings: not given

Compound | AC50
CN(C)CC(=O)N1[C@H](CO)[C@H](c2ccc(C#CC3CCCCC3)cc2)[C@@H]1C#N | 8.31 µM (active)
O=C(c1cnccn1)N1CC(=O)N2[C@@H](CO)[C@H](c3ccc(C#CCc4ccccc4)cc3)[C@@H]2C1 | 5.99 µM (active)
C[C@H](CO)N1C[C@H](C)[C@H](CN(C)C(=O)Nc2ccc(N3CCCCC3)cc2)OCc2cnnn2CCCC1=O | > 39 µM (inactive)
C[C@H]1CN([C@@H](C)CO)C(=O)c2ccccc2-c2ccccc2CO[C@H]1CN(C)Cc1ccc(Oc2ccccc2)cc1 | 4.26 µM (active)
N#C[C@@H]1[C@@H](c2ccccc2-c2ccccc2F)[C@@H](CO)N1C(=O)C1CCOCC1 | 24.2 µM (active)
CO[C@@H]1CN(C)C(=O)c2cc(NC(=O)Nc3ccc(C(F)(F)F)cc3)ccc2OC[C@@H](C)NC[C@@H]1C | 5.92 µM (active)
O=S(=O)(Cc1ccccc1)N1[C@H](CO)[C@@H](c2ccccc2)C12CN(CCC(F)(F)F)C2 | 5.09 µM (active)

Tested on: not listed separately
Experiment: inhibitors of intracellular T. cruzi replication, confirmation, NIH3T3 host cells, beta-gal luminescence (AID 2044);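 also: intracellular parasites grown in NIH/3T3 mouse fibroblasts as host cells; luminescent beta-galactosidase reporter signal from transgenic T. cruzi replicating inside host cells; inhibitors lower the luminescence signal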
Assay type: functional, cell-based
Settings: not given

Compound | EC50
Cc1cc(C(=O)CN2CCC(C)CC2)c(C)n1-c1ccccc1F | 1.18 µM (active)
Cc1cccc2c1Sc1ccc(Cl)cc1CC2N1CCNCC1 (centres undefined) | 3.13 µM (active)

Molecular target: T1, Corticotropin-releasing factor receptor 2/Corticotropin-releasing factor-binding protein (Homo sapiens, UniProt P24387+Q13324)
T1 sequence (Q13324 whole entry): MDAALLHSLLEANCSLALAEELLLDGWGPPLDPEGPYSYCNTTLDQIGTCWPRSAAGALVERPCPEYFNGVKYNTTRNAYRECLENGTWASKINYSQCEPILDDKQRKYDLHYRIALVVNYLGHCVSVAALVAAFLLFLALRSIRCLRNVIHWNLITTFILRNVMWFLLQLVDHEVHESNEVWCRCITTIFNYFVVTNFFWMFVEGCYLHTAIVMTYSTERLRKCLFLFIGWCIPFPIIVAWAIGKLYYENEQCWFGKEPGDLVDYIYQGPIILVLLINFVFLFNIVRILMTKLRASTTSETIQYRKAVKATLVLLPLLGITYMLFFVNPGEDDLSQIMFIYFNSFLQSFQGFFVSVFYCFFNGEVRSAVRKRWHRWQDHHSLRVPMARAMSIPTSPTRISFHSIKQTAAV
T1 sequence (P24387 whole entry): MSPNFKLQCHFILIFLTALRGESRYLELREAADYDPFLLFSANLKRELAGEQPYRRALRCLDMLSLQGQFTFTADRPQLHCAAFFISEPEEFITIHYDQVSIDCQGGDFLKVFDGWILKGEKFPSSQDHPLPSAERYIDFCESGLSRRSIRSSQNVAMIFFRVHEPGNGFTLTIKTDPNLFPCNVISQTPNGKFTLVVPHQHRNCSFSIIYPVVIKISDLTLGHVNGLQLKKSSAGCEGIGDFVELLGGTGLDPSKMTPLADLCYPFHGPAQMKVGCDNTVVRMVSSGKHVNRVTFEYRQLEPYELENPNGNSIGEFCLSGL
Experiment: Dose Response confirmation of uHTS hits for small molecule antagonists of the CRF-binding protein and CRF-R2 receptor complex.
Assay type: functional
Settings: read-out: IC50_Mean

Compound | IC50
C#CCSc1nc(C)cc(C(=O)OCC)c1C#N | > 47.1 µM (inactive)
O=C(NCc1csc(-c2cccs2)n1)c1ccccc1 | > 47.1 µM (inactive)
COc1cc2ccccc2cc1C(=O)N/N=C/c1ccc2c(c1)OCO2 | > 47.1 µM (inactive)
COc1cc(-c2ccc3cc(OC)c(OC)c(OC)c3c2)cc(OC)c1OC | > 47.1 µM (inactive)
CC(C)[C@H](NC(=O)OC(C)(C)C)C(=O)N/N=C/c1ccc2nccnc2c1 | > 47.1 µM (inactive)
N#Cc1ccc(CSC2=NCCN2)cc1 | > 47.1 µM (inactive)

Molecular target: Paired box protein Pax-8 (Homo sapiens, UniProt Q06710)
Sequence (Q06710 whole entry): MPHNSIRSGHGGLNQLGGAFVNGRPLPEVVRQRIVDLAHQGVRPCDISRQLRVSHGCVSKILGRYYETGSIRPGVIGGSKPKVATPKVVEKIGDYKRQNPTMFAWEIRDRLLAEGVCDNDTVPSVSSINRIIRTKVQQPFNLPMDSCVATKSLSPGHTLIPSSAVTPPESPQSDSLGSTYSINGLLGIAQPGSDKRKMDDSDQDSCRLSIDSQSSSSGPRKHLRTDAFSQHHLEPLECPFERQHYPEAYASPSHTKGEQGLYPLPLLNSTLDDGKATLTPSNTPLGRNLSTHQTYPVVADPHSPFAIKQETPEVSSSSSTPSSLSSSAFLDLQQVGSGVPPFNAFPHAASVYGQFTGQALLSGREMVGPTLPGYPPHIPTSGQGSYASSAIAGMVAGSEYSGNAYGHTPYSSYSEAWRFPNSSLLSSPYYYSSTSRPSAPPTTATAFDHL
Experiment: inhibitors of PAX8-driven TPO luciferase reporter, dose response, RMG-I cells, cherry-pick (AID 687027);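 also: luciferase reporter driven by Pax8 target thyroperoxidase promoter measured by SteadyGlo luminescence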
Assay type: functional, cell-based
Settings: not given

Compound | AC50
COc1cc(C(=O)NCC(c2cccs2)N2CCOCC2)ccc1OCc1ccc(Cl)cc1 (centres undefined) | 22 µM (active)
COc1ccc(S(=O)(=O)Nc2ccc3c(c2)C(=O)N([C@@H](C)CO)C[C@H](C)[C@H](CN(C)Cc2ccc(C(F)(F)F)cc2)OCCCC[C@@H](C)O3)cc1 | 7.68 µM (active)
Cc1ccc(S(=O)(=O)Nc2ccc3c(c2)C(=O)N([C@H](C)CO)C[C@H](C)[C@H](CN(C)C(=O)c2ccccc2)OCCCC[C@H](C)O3)cc1 | 19.4 µM (active)

Molecular target: T2, Heat shock factor protein 1 (Mus musculus, UniProt P38532)
T2 sequence (P38532 whole entry): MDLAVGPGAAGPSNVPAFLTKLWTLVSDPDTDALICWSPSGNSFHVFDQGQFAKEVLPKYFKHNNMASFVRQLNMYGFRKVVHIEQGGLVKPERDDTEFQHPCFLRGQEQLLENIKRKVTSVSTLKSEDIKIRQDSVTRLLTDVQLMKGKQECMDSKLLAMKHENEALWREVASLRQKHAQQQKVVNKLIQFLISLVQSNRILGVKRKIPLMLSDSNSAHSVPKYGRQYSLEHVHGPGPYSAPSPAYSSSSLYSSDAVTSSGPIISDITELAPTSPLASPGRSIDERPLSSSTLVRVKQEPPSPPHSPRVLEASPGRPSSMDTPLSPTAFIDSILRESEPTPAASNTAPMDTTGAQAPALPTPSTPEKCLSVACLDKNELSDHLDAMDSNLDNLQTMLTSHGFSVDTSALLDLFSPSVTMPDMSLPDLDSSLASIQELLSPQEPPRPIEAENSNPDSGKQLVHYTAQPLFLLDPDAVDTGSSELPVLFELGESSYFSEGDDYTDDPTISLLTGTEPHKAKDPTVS
Experiment: inhibition of MG132-induced HSE-luciferase signal, confirmation, cell-based, NIH3T3, luminescence, dose retest (AID 2382);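 also: NIH3T3 fibroblasts with HSF1-driven luciferase reporter stressed by proteasome inhibitor MG132; luminescence from HSF1-driven luciferase expression after 8 hours of MG132 stress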
Assay type: functional
Settings: not given

Compound | EC50
COc1ccc(-n2nc(C)cc2N)cc1 | > 195 µM (not active)
Cc1cc(C(=O)CN2CCC(C)CC2)c(C)n1-c1ccccc1F | < 0.16 µM (active)
Cc1nnc(N/N=C/c2cc(C)n(-c3ccc(F)cc3)c2C)n1N | 29.7 µM (active)

Molecular target: T1, Corticotropin-releasing factor receptor 2/Corticotropin-releasing factor-binding protein
Experiment: activators of CRF receptor 2 with binding protein – uHTS hits, confirmation (AID 602473)
Assay type: functional
Settings: read-out: EC50_Mean

Compound | EC50
C#CCSc1nc(C)cc(C(=O)OCC)c1C#N | > 53 µM (inactive)
O=C(NCc1csc(-c2cccs2)n1)c1ccccc1 | > 53 µM (inactive)
COc1cc2ccccc2cc1C(=O)N/N=C/c1ccc2c(c1)OCO2 | > 53 µM (inactive)
COc1cc(-c2ccc3cc(OC)c(OC)c(OC)c3c2)cc(OC)c1OC | > 53 µM (inactive)
CC(C)[C@H](NC(=O)OC(C)(C)C)C(=O)N/N=C/c1ccc2nccnc2c1 | > 53 µM (inactive)
N#Cc1ccc(CSC2=NCCN2)cc1 | > 53 µM (inactive)

Tested on: SN12K1
Experiment: cells
Assay type: functional
Settings: Homo sapiens

Compound | GI50
O=C(NCCCl)O/N=C/c1cccnc1 | > 100 µM (inactive)

Tested on: not listed separately
Experiment: Luminescence Cell-Based Dose Response HTS to Identify Inhibitors of 5'UTR Stem-Loop Driven Prion Protein mRNA Translation in H4 Neuroglioblastoma Cells. [Related pubchem assays: 1827 (Project Summary), 1813 (Primary HTS)]
Assay type: functional
Settings: not given

Compound | EC50
Cc1cccc2c1Sc1ccc(Cl)cc1CC2N1CCNCC1 (centres undefined) | 116 µM (active)

Tested on: not listed separately
Experiment: inhibitors of SNCA 5'UTR-driven reporter translation, confirmation, H4 neuroglioma cells, luminescence (AID 1988)
Assay type: functional, cell-based
Settings: not given

Compound | EC50
Cc1cccc2c1Sc1ccc(Cl)cc1CC2N1CCNCC1 (centres undefined) | 11.7 µM (active)

Tested on: not listed separately
Experiment: inhibitors of firefly luciferase expression or activity, dose response, H4 neuroglioma cells, luminescence (AID 1990)
Assay type: functional, cell-based
Settings: not given

Compound | EC50
Cc1cccc2c1Sc1ccc(Cl)cc1CC2N1CCNCC1 (centres undefined) | > 120 µM (not active)

Tested on: not listed separately
Experiment: cytotoxicity toward NIH3T3 fibroblasts, dose response, counter-screen, cell-based, ATP luminescence, mouse fibroblasts (AID 2010);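 also: cells exposed to compound for about 90 hours before reading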
Assay type: functional
Settings: not given

Compound | EC50
Cc1cc(C(=O)CN2CCC(C)CC2)c(C)n1-c1ccccc1F | > 60 µM (not active)
Cc1cccc2c1Sc1ccc(Cl)cc1CC2N1CCNCC1 (centres undefined) | 12.9 µM (active)
